Biological target: T1, Bacillus lentus alkaline protease F49 (Lederbergia lenta, UniProt P29599, A188P/L211D/S3T/V193M/V199I)
T1 sequence (P29599 with tags, fused parts or gaps A188P/V193M/V199I/L211D limits assumed): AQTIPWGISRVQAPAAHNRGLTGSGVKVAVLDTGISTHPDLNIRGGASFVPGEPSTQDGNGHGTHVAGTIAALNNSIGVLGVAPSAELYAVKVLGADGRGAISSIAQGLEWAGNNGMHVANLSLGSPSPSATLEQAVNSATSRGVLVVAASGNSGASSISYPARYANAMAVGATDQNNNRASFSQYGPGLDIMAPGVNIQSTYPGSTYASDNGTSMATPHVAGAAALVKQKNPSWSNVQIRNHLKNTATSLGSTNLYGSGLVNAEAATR
Test: Residual protease activity in the presence of an inhibitor (AAPFpNA substrate)
Type: biochemical
Conditions: compound 10 mM final concentration; incubation 5 min at pH 8.6 and 25° C.; batch without compound set at 100%
Protocol: In parallel reaction batches, the succinyl-alanine-alanine-proline-phenylalanine-para-nitroanilide substrate (AAPFpNA; Bachem L-1400) and 5×10^−9 or 1×10^−8 M of the protease were prepared in 100 mM BrijTM35 Tris buffer, […], 0.1% (w/v). The compounds to be tested (listed below) were added at a final concentration of 10 mM. They were each dissolved in anhydrous DMSO, the effects of DMSO on enzymatic activity having been corrected via the corresponding reference having the same quantity of DMSO but without the relevant compound. Incubation occurred for 5 min at pH 8.6 and 25° C. The corresponding reaction mixture with protease, but without the relevant compound, served as a comparison. The protease activity in these comparison batches was set at 100%.

| SMILES | residual protease activity [%] |
| --- | --- |
| O=P(O)(OCc1ccccc1)OCc1ccccc1 [V2, dibenzyl phosphate] | 56 |
| CCCCOP(=O)(O)OCCCC [V1, dibutyl phosphate] | 45 |
